Assay results from PMC5049494, “Nitrotriazole-based acetamides and propanamides with broad spectrum antitrypanosomal activity” (European Journal of Medicinal Chemistry, 2016).
Like-named read-outs stand apart in the source and are kept apart here.

Tests used:
[1] = test system: T.b. rhodesiense, strain STIB 900 trypomastigotes; design: method as in PMID 26344593, PMID 25580906; conditions: cited from earlier work; for anti-HAT activity class (TDR criteria): T. b. rhodesiense, previously evaluated acetamides; for IC50: previously evaluated compounds (orange, designated a), read-out: T.b.r. IC50
[2] = test system: T. cruzi, strain Tulahuen C4 amastigotes; conditions: cited from earlier work; for Bnz/comp: fold potency relative to Bnz; for Bnz/comp / SI (T. c.): previously evaluated compounds; for IC50: previously evaluated compounds (orange, designated a), read-out: T. c. IC50; for SI (T. c.): IC50 L6/IC50 parasite
[3] = test system: L. donovani axenic, strain MHOM-ET-67/L82 amastigotes; design: method as in PMID 26344593, PMID 25580906; conditions: cited from earlier work; for IC50: previously evaluated compounds (orange, designated a), read-out: L.d. IC50; for SI (L.d.): IC50 L6/IC50 parasite, previously evaluated compounds
[4] = test system: L6 cells (rat skeletal myoblasts); design: method as in PMID 26344593, PMID 25580906; conditions: previously evaluated compounds (orange, designated a); read-out: Cyt. L6 IC50; cited from earlier work
[5] = test system: T.b. rhodesiense, strain STIB 900 trypomastigotes; assay: In vitro activity against T. b. rhodesiense; type: cell-based; conditions: for SI (T.b.r.): IC50 in L6 cells/IC50 in T.b. rhodesiense; for IC50: Trypanosoma brucei, read-out: T.b.r. IC50; for fold more potent against T. b. rhodesiense than the corresponding acetamide: propanamide vs acetamide analog; for anti-HAT activity class (TDR criteria): T. b. rhodesiense
Description: (§1) Compounds in Table 1 were screened for anti-parasitic activity against three trypanosomatids: T. cruzi, T. b. rhodesiense and Leishmania donovani and compared with previously made analogs shown in orange and designated with a. […] In addition, compounds were tested for toxicity in L6 rat skeletal myoblasts, the host cells for T. cruzi amastigotes, in order to calculate a selectivity index for each parasite [SI = IC50L6/IC50parasite] (Table 1). The TDR (Special Programme for Research and Training in Tropical Diseases, World Health Organization) criteria were adopted to interpret antiparasitic activity and selectivity.
(§2) In vitro activity against T. cruzi, T. b. rhodesiense, L. donovani and cytotoxicity assessment using L6 cells (rat skeletal myoblasts) was determined using a 96-well plate format as previously described. Data were analyzed with the graphic program Softmax Pro (Molecular Devices, Sunnyvale, CA, USA), which calculated IC50 values by linear regression from the sigmoidal dose inhibition curves.

[6] = test system: T. cruzi, strain Tulahuen C4 amastigotes; assay: In vitro activity against T. cruzi; type: cell-based; conditions: for SI (T. c.): IC50 in L6 cells/IC50 in T. cruzi; for IC50: Trypanosoma cruzi, T. cruzi Tulahuen C4 amastigotes, means of 2 to 3 measurements, SD < 5%, read-out: T. c. IC50; for Bnz/comp: fold antichagasic potency relative to Bnz (T. cruzi IC50 ratio)
Description: (§3) The concentration of compound that inhibits parasite growth by 50% (IC50) was calculated from dose response curves for each parasite (Table 1). In addition, compounds were tested for toxicity in L6 rat skeletal myoblasts, the host cells for T. cruzi amastigotes, in order to calculate a selectivity index for each parasite [SI = IC50L6/IC50parasite]
(§4) In vitro activity against T. cruzi, T. b. rhodesiense, L. donovani and cytotoxicity assessment using L6 cells (rat skeletal myoblasts) was determined using a 96-well plate format as previously described [37]. Data were analyzed with the graphic program Softmax Pro (Molecular Devices, Sunnyvale, CA, USA), which calculated IC50 values by linear regression from the sigmoidal dose inhibition curves.

[7] = test system: L. donovani axenic, strain MHOM-ET-67/L82 amastigotes; assay: In vitro activity against L. donovani; type: cell-based; conditions: for SI (L.d.): IC50 in L6 cells/IC50 in L. donovani; for IC50: Leishmania donovani, L. donovani axenic amastigotes MHOM-ET-67/L82, means of 2 to 3 measurements, SD < 5%, read-out: L.d. IC50
Description: as §3, §4

[8] = Cytotoxicity in the host L6 cells; type: cell-based, rat; conditions: rat, L6 cells (rat skeletal myoblasts); cytotoxicity in host L6 cells; read-out: Cyt. L6 IC50
Description: as §1, §2

[9] = test system: bloodstream form T.b. brucei wild type; assay: T. brucei antiproliferating assay, wild type; type: cell-based; conditions: means from 4 experiments ± SD
Description: The BSF of T. brucei parasites were seeded at 1 × 10^3 mL^−1 in 200 μL of growth medium containing different concentrations of nitroheterocycle. Where appropriate, induction of the TbNTR was carried out by adding tetracycline (1 μg/mL). After incubation for 3 days at 37 °C, 20 μL of Alamar blue was added to each well and the plates incubated for a further 16 h. The cell density of each culture was determined as described before and the IC50 established.

[10] = test system: bloodstream form T.b. brucei recombinant parasites expressing wild type (-tet) or elevated (+tet) levels of TbNTR; assay: microbe, parasite or virus in culture; type: cell-based; conditions: for IC50: Trypanosoma brucei; for Ratio –tet/+tet: ratio of IC50 values -tet/+tet
Description: The BSF of T. brucei parasites were seeded at 1 × 10^3 mL^−1 in 200 μL of growth medium containing different concentrations of nitroheterocycle. Where appropriate, induction of the TbNTR was carried out by adding tetracycline (1 μg/mL). After incubation for 3 days at 37 °C, 20 μL of Alamar blue was added to each well and the plates incubated for a further 16 h. The cell density of each culture was determined as described before [20] and the IC50 established.

[11] = test system: transgenic T. cruzi parasites expressing firefly luciferase; type: in vivo, Balb/c mice; conditions: for parasite load after 10 days of treatment: acute murine model, p < 0.0001; for parasitic level after 5-day treatment: compared to untreated control
Description: A fast luminescence assay was used in an acute infected murine model, in which transgenic T. cruzi parasites expressing firefly luciferase were injected in 5 week-old Balb/c mice. Mice were injected with D-luciferin before imaging. Groups of 5 mice/group were treated i.p. for 10 consecutive days with each compound, at 13 or 15 mg/kg/day. […] The mean ratio of parasite levels was calculated after 5 and 10 days of treatment.
For in vivo studies, a Brazilian strain trypomastigotes from transgenic T. cruzi parasites expressing firefly luciferase were used as described before. Briefly, parasites (10^5 trypomastigotes) were injected in 5 week-old Balb/c mice (Taconic) and three days later mice were anesthesized by inhalation of isofluorane, followed by an injection with 150 mg/kg of D-luciferin potassium-salt in PBS. Mice were imaged 5–10 min after injection of luciferin with an IVIS 100 (Xenogen, Alameda, CA) and the data acquisition and analysis were performed with the software LivingImage (Xenogen) as described before. Treatment with test compounds started 4 days post infection at 13 or 15 mg/kg/day × 10 days, given i.p. The vehicle control was 2% methylcellulose +0.5% Tween 80 and groups of 5 mice/group were used. Mice were imaged after 5 and 10 days of treatment. The ratio of parasite levels was calculated for each animal dividing the luciferase signal after treatment by the luciferase signal on the first imaging (before treatment). Mean values of all animals in each group ± SD were used for plotting.

[12] = T.b. rhodesiense STIB 900 trypomastigotes, means of 2 to 3 measurements, SD < 5%
[13] = Trypanosoma brucei, read-out: IC50 value T.b. brucei Wild type, bloodstream form
[14] = read-out: IC50 value T.b. brucei TbNTR (+tet)
[15] = read-out: IC50 value T.b. brucei TbNTR (-tet)

In the case of `O=C(Cn1cnc([N+](=O)[O-])n1)Nc1cccc(OCc2ccccc2)c1` [Compound 11a], the “anti-HAT activity class (TDR criteria)” value [1] is listed as “moderately active (IC50 between 0.5 and 6.0 μM)”, the IC50 [1] is listed as 4860 nM and the Bnz/comp [2] is listed as 17. For the same compound, the IC50 [3] was 3360 nM and the IC50 [4] was 68400 nM.

With `O=C(CCn1cnc([N+](=O)[O-])n1)Nc1cccc(-c2ccccc2)c1` [Compound 10, N-([1,1′-biphenyl]-3-yl)-3-(3-nitro-1H-1,2,4-triazol-1-yl)propanamide] the “SI (T.b.r.)” value [5] was 134, the IC50 [5, 12] was 270 nM and the “fold more potent against T. b. rhodesiense than the corresponding acetamide” value [5] was 214 fold. The “SI (T. c.)” value [6] was 452, the IC50 [6] was 80 nM and the Bnz/comp [6] was 28. For the same compound, the “fold more potent against T. cruzi than the acetamide analog” value ([6]; propanamide vs acetamide analog) was 2.2 fold, the “SI (L.d.)” value [7] was 10.2 and the IC50 [7] was 3550 nM. For the same compound, the IC50 [8] was 36200 nM, the IC50 [9, 13] was 6660 ± 920 nM and the IC50 [10, 14] was 230 ± 20 nM. The IC50 [10, 15] was 5580 ± 620 nM and the melting point was 174 to 176 °C.

`O=C(CCn1cnc([N+](=O)[O-])n1)Nc1ccc(Oc2ccc(F)cc2)cc1` [Compound 7, N-(4-(4-fluorophenoxy)phenyl)-3-(3-nitro-1H-1,2,4-triazol-1-yl)propanamide] gave an IC50 [5, 12] of 167 nM, an IC50 [6] of 40 nM and a Bnz/comp [6] of 55. It also gave an IC50 [7] of 1180 nM, an IC50 [8] of 23400 nM and an IC50 [9, 13] of roughly 650 nM. For the same compound, the IC50 ([9]; read-out: IC50 value T.b. brucei Wild type, bloodstream form) was 570 ± 50 nM, the IC50 [10, 14] was 330 ± 30 nM and the IC50 [10, 15] was 680 ± 70 nM. The “toxicity symptoms in treated mice” value ([11]; 13 mg/kg/day i.p. x 10 days) was “No toxicity symptoms were observed”, the “parasite load after 10 days of treatment” value ([11]; 13 mg/kg/day i.p. x 10 days) was “undetectable levels” and the “parasitic level after 5-day treatment” value ([11]; 13 mg/kg/day i.p.) was “Statistically significant reduction in parasitic level”.

For `O=C(Cn1cnc([N+](=O)[O-])n1)NCc1ccc(C(F)(F)F)cc1` [Compound 2a], the “fold more potent against T. b. rhodesiense than 2” value ([5]; compared with N-methyl acetamide 2) is listed as 5.8 fold, the “anti-HAT activity class (TDR criteria)” value [1] is listed as “inactive” and the IC50 [1] is listed as 6470 nM. The IC50 [2] was 970 nM and the IC50 [3] was 10400 nM.

For `O=C(CCn1cnc([N+](=O)[O-])n1)Nc1ccc(Oc2ccccc2)cc1` [Compound 8, 3-(3-Nitro-1H-1,2,4-triazol-1-yl)-N-(4-phenoxyphenyl)propanamide], the “SI (T.b.r.)” value [5] was 203, the IC50 [5, 12] was 156 nM and the “fold more potent against T. b. rhodesiense than the corresponding acetamide” value [5] was 17.4 fold. For the same compound, the “SI (T. c.)” value [6] was 398, the IC50 [6] was 79 nM and the Bnz/comp [6] was 28. The IC50 [7] was 2330 nM, the IC50 [8] was 31600 nM and the IC50 [9, 13] was 140 ± 10 nM. For the same compound, the IC50 [10, 14] was 410 ± 10 nM, the IC50 [10, 15] was 1470 ± 30 nM and the melting point was 108 to 110 °C.

With `O=C(CCn1cnc([N+](=O)[O-])n1)Nc1cc(-c2ccc(F)cc2)on1` [Compound 12, N-(5-(4-fluorophenyl)isoxazol-3-yl)-3-(3-nitro-1H-1,2,4-triazol-1-yl)propanamide] the “SI (T.b.r.)” value [5] was greater than 201, the “anti-HAT activity class (TDR criteria)” value [5] was “moderately active (IC50 between 0.5 and 6.0 μM)” and the IC50 [5, 12] was 1440 nM. For the same compound, the “fold more potent against T. b. rhodesiense than the corresponding acetamide” value [5] was 5.6 fold, the “SI (T. c.)” value [6] was greater than 794 and the IC50 [6] was 364 nM. The Bnz/comp [6] was 6, the “SI (L.d.)” value [7] was greater than 37 and the “antileishmanial activity class (TDR criteria)” value ([7]; L. donovani) was “inactive”. For the same compound, the IC50 [7] was 7790 nM, the IC50 [8] was greater than 289000 nM and the IC50 [9, 13] was 760 ± 100 nM. The IC50 [10, 14] was 400 nM, the IC50 [10, 15] was 1610 ± 100 nM and the “Ratio –tet/+tet” value [10] was 4.1. For the same compound, the melting point was 215 °C (dec.).

For `O=C(Cn1ccnc1[N+](=O)[O-])NCc1ccccc1` [Bnz, Benznidazole, reference compound], the “parasite load after 10 days of treatment” value ([11]; 15 mg/kg/day i.p. x 10 days) was “undetectable levels” and the “parasitic level after 5-day treatment” value ([11]; 15 mg/kg/day i.p.) was “Statistically significant reduction in parasitic level”.

In the case of `Nc1nc(N)nc(Nc2ccc([As]3SCC(CO)S3)cc2)n1` (centres unmarked) [Melars., Melarsoprol, reference compound], the IC50 [5] is reported as 9 ± 1 nM.

For `O=C(Cn1cnc([N+](=O)[O-])n1)Nc1ccc(Oc2ccc(F)cc2)cc1` [Compound 7a], the IC50 [1] is listed as 2000 nM, the “SI (T. c.)” value [2] is listed as 1954 and the Bnz/comp [2] is listed as 56. The IC50 [2] was 36 nM, the “SI (L.d.)” value [3] was 384 and the IC50 [3] was 183 nM. The IC50 [4] was 70400 nM.

In the case of `O=C(Cn1cnc([N+](=O)[O-])n1)Nc1ccc(Oc2ccc(Cl)cc2)cc1` [Compound 6a], the IC50 [1] is listed as 1330 nM, the “SI (T. c.)” value [2] is listed as 3615 and the Bnz/comp [2] is listed as 254. The “SI (L.d.)” value [3] was 853, the IC50 [3] was 34 nM and the IC50 [4] was 28900 nM.

For `O=C(Cn1cnc([N+](=O)[O-])n1)Nc1ccc(Oc2ccccc2)cc1` [Compound 8a], the IC50 [1] is listed as 2720 nM, the “SI (T. c.)” value [2] is listed as 1416 and the Bnz/comp [2] is listed as 31. For the same compound, the IC50 [2] was 65 nM, the “SI (L.d.)” value [3] was 339 and the IC50 [3] was 271 nM. The IC50 [4] was 92000 nM.

For `CC1CS(=O)(=O)CCN1/N=C/c1ccc([N+](=O)[O-])o1` (centres unmarked) [nfx, Nifurtimox, reference compound], the IC50 ([9]; Trypanosoma brucei, bloodstream form, read-out: IC50 value T.b. brucei Wild type) was 3980 ± 150 nM, the IC50 [10, 14] was 869 ± 46 nM and the IC50 [10, 15] was 6360 ± 119 nM. For the same compound, the “Ratio –tet/+tet” value [10] was 7.3.

In the case of `CN(C(=O)Cn1ccnc1[N+](=O)[O-])c1ccc(C(F)(F)F)cc1` [Compound 3, N-methyl-2-(2-nitro-1H-imidazol-1-yl)-N-(4-(trifluoromethyl)phenyl)acetamide], the “SI (T.b.r.)” value [5] is reported as 1.9, the “anti-HAT activity class (TDR criteria)” value [5] is reported as “inactive” and the IC50 [5, 12] is reported as 97700 nM. For the same compound, the “antichagasic activity class (TDR criteria)” value ([6]; T. cruzi) was “moderately active (IC50 between 4.0 and 60 μM)”, the IC50 [6] was 49400 nM and the “SI (L.d.)” value [7] was 3.96. It also gave an IC50 [7] of 47700 nM, an IC50 [8] of 189000 nM and a melting point of 45 to 47 °C.

In the case of `O=C(Cn1cnc([N+](=O)[O-])n1)Nc1cccc(-c2ccccc2)c1` [Compound 10a], the IC50 [4] is listed as 45300 nM.
